From ChEMBL document CHEMBL5236615, “Discovery of Novel N-Heterocyclic-Fused Deoxypodophyllotoxin Analogues as Tubulin Polymerization Inhibitors Targeting the Colchicine-Binding Site for Cancer Treatment” (J Med Chem, 2022)
The source made the active and inactive calls. The calls are words filed in the database; no cut-off is given here.

Experiments:
MCF7 [1] = experiment: Antitumor activity against human MCF7 cells xenografted in Balb/c mouse assessed as decrease in CD31-positive tumor cells in tumor at 20 mg/kg, ip administered for every 2 days for 21 days; type: functional, organism-based; details: time 2.0 day
MCF7 [2] = experiment: Induction of apoptosis in human MCF7 cells assessed as upregulation of cleaved Caspase 3 at 5 to 20 nM measured after 24 hrs by Western blot analysis; type: functional, cell-based; details: dose 5-20 nM
MCF7 [3] = experiment: Induction of cell cycle arrest in human MCF7 cells assessed as accumulation of cells at G2/M phase at 20 nM measured after 24 hrs by flow cytometry relative to control; type: functional
MCF7 [4] = experiment: Induction of apoptosis in human MCF7 cells assessed as upregulation of p-Bim EL protein expression at 5 to 20 nM measured after 24 hrs by Western blot analysis; type: functional, cell-based; details: dose 5-20 nM
MCF7 [5] = experiment: Induction of cell cycle arrest in human MCF7 cells assessed as upregulation of Bcl2 phosphorylation at […] at 5 to 20 nM measured after 24 hrs by Western blot analysis; type: functional, cell-based; details: dose 5-20 nM
[6] = Toxicity in Balb/c mouse xenografted with human MCF7 cells assessed as pathological changes in liver at 5 to 20 mg/kg, ip administered for every 2 days for 21 days by hematoxylin and eosin staining based analysis; type: organism-based; details: in vivo, 504 h, dose 5-20 mg/kg, time 21 day
MCF7 [7] = experiment: Induction of cell cycle arrest in human MCF7 cells assessed as mitosis by measuring accumulation of histone H3 ser10 phosphorylation incubated for 24 hrs by immunofluorescence assay; type: functional, cell-based; details: dose 5-25 nM
A549/TxR = experiment: Induction of apoptosis in paclitaxel-resistant human A549/TxR cells incubated for 24 hrs by annexinV/PI assay; type: functional, cell-based; details: dose 5-20 nM
HUVEC = experiment: Inhibition of angiogenesis in HUVEC cells assessed as reduction in capillary tube formation after 6 hrs by phase contrast microscopy; type: functional, cell-based; details: Homo sapiens, dose 1.25-5 nM
[8] = Toxicity in Balb/c mouse xenografted with human MCF7 cells assessed as body weight loss at 5 to 20 mg/kg, ip administered for every 2 days for 21 days; type: organism-based; details: in vivo, 48 h, dose 5-20 mg/kg, time 2 day
MCF7 [9] = experiment: Induction of apoptosis in human MCF7 cells incubated for 24 hrs by annexinV/PI assay; type: functional, cell-based; details: dose 5-25 nM
MCF7 [10] = experiment: Induction of cell cycle arrest in human MCF7 cells assessed as CI-PARP at 5 to 20 nM in presence of roscovitine measured after 24 hrs by Western blot analysis; type: functional, cell-based; details: dose 5-20 nM
[11] = Toxicity in Balb/c mouse assessed as pathological changes in blood alanine aminotransferase level at 20 mg/kg, ip administered for every 2 days for 14 days; type: organism-based; details: in vivo, 336 h, time 14 day
[12] = Toxicity in Balb/c mouse assessed as pathological changes in blood lactic dehydrogenase level at 20 mg/kg, ip administered for every 2 days for 14 days; type: organism-based; details: in vivo, 336 h, time 14 day
MCF7 [13] = experiment: Antiproliferative activity against human MCF7 cells assessed as survival rate at 20 nM in presence of roscovitine measured after 72 hrs by MTT assay relative to control; type: functional
Tubulin (Homo sapiens) = Tubulin (Homo sapiens) (UniProt P68371+Q9H4B7+P0DPH7+P68366+Q13509+Q71U36+P04350+Q3ZCM7+P07437+P68363+Q9BQE3+Q6PEY2+Q13885+Q9BVA1+Q9BUF5); experiment: Disruption of microtubule network in human MCF7 cells assessed as broken microtubule filaments at 20 nM measured after 6 hrs by immunofluorescence assay; type: cell-based
[14] = Cardiotoxicity in Sprague-Dawley rat assessed as PR interval at 10 to 60 mg/kg, iv measured upto 60 mins by electrocardiography; type: toxicity, organism-based; details: in vivo, 1 h, dose 10-60 mg/kg
[15] = MRT (0 to t) in Sprague-Dawley rat at 10 mg/kg, iv measured upto 8 hrs by LC/MS/MS analysis; type: ADME, organism-based; details: in vivo
[16] = AUC (0 to t) in Sprague-Dawley rat at 10 mg/kg, iv measured upto 8 hrs by LC/MS/MS analysis; type: ADME, organism-based; set-up: dose 10 mg/kg, time < 8 hrs, route iv; details: in vivo
[17] = Cmax in Sprague-Dawley rat at 10 mg/kg, iv measured upto 8 hrs by LC/MS/MS analysis; type: ADME, organism-based; set-up: dose 10 mg/kg, time < 8 hrs, route iv; details: in vivo
[18] = Toxicity in Balb/c mouse assessed as pathological changes in blood urea nitrogen level at 20 mg/kg, ip administered for every 2 days for 14 days; type: organism-based; details: in vivo, 336 h, time 14 day
[19] = Half life in Sprague-Dawley rat at 10 mg/kg, iv measured upto 8 hrs by LC/MS/MS analysis; type: ADME, organism-based; details: in vivo
MCF7 [20] = experiment: Antiproliferative activity against human MCF7 cells assessed as survival rate at 20 nM measured after 72 hrs by MTT assay relative to control; type: functional
[21] = Cardiotoxicity in Sprague-Dawley rat assessed as QTcf value at 10 to 60 mg/kg, iv measured upto 60 mins by electrocardiography; type: toxicity, organism-based; details: in vivo, 1 h, dose 10-60 mg/kg
[22] = Toxicity in Balb/c mouse assessed as pathological changes in blood creatinine level at 20 mg/kg, ip administered for every 2 days for 14 days; type: organism-based; details: in vivo, 336 h, time 14 day
[23] = Antitumor activity against paclitaxel-resistant human MCF7/TxR cells xenografted in Balb/c mouse assessed as tumor growth inhibition at 5 mg/kg, ip administered for every 2 days for 21 days; type: functional; details: read-out: TGI
[24] = Toxicity in Balb/c mouse assessed as pathological changes in blood aspartate aminotransferase level at 20 mg/kg, ip administered for every 2 days for 14 days; type: organism-based; details: in vivo, 336 h, time 14 day
[25] = Toxicity in Balb/c mouse assessed as pathological changes in blood creatine kinase level at 20 mg/kg, ip administered for every 2 days for 14 days; type: organism-based; details: in vivo, 336 h, time 14 day
[26] = Cardiotoxicity in Sprague-Dawley rat assessed as heart rate at 10 to 60 mg/kg, iv measured upto 60 mins by electrocardiography; type: toxicity, organism-based; details: in vivo, 1 h, dose 10-60 mg/kg
[27] = Clearance in Sprague-Dawley rat at 10 mg/kg, iv measured upto 8 hrs by LC/MS/MS analysis; type: ADME, organism-based; details: in vivo
MCF7 [28] = experiment: Induction of cell cycle arrest in human MCF7 cells assessed as upregulation of Bcl2 phosphorylation at […] at 5 to 20 nM in presence of roscovitine measured after 24 hrs by Western blot analysis; type: functional, cell-based; details: dose 5-20 nM
MCF7 [29] = experiment: Induction of apoptosis in human MCF7 cells assessed as upregulation of p-Bim EL protein expression at 5 to 20 nM in presence of roscovitine measured after 24 hrs by Western blot analysis; type: functional, cell-based; details: dose 5-20 nM
[30] = Cardiotoxicity in Sprague-Dawley rat assessed as QT correction value at 10 to 60 mg/kg, iv measured upto 60 mins by electrocardiography; type: toxicity, organism-based; details: in vivo, 1 h, dose 10-60 mg/kg
[31] = biological target: Tubulin beta (Homo sapiens) (UniProt P68371+Q9H4B7+Q13509+P04350+Q3ZCM7+P07437+Q13885+Q9BVA1+Q9BUF5+A6NNZ2); experiment: Binding affinity to beta-tubulin colchicine binding site in human MCF-7 cells assessed as inhibition of EBI-beta-tubulin adduct band formation preincubated for 2 hrs followed by EBI addition and measured after 1.5 hrs by EBI competition based Western blotting analysis; type: cell-based; details: MCF7, dose 0.2-25 µM, time 3.5 hrs
MCF7 [32] = experiment: Induction of cell cycle arrest in human MCF7 cells assessed as acetyl-alpha tubulin at 20 nM in presence of roscovitine measured after 24 hrs by Western blot analysis; type: functional, cell-based
[33] = Tmax in Sprague-Dawley rat at 10 mg/kg, iv measured upto 8 hrs by LC/MS/MS analysis; type: ADME, organism-based; details: in vivo

In the case of `COc1c(Br)cc([C@@H]2c3cc4c(cc3C[C@H]3C(=O)NC(=O)N23)OCCO4)cc1Br`, the Activity (MCF7 [1]) is reported as “Active”, the Activity (MCF7 [2]) is reported as “Active” and the Activity (MCF7 [3]) is reported as 16%. For the same molecule, the Activity (MCF7 [4]) was “Active”, the Activity (MCF7 [5]) was “Active” and the Activity [6] was “Non-Toxic”. For the same molecule, the Activity (MCF7 [7]) was “Dose-Dependent Effect”, the inhibition (A549/TxR) was “Dose-Dependent Effect” and the Activity (HUVEC) was “Dose-Dependent Effect”. For the same molecule, the Activity [8] was “Non-Toxic” and the Activity (MCF7 [9]) was “Dose-Dependent Effect”.
In the case of `COc1c(Cl)cc([C@@H]2c3cc4c(cc3C[C@H]3C(=O)NC(=O)N23)OCCO4)cc1Cl`, the Activity (MCF7 [10]) is reported as “inactive”, the Activity [11] is reported as “Non-Toxic” and the Activity [12] is reported as “Non-Toxic”. For the same molecule, the Activity (MCF7 [1]) was “Active”, the Activity (MCF7 [13]) was 60.71% and the Activity (MCF7 [2]) was “Active”. The Activity (MCF7 [3]) was 16%, the Activity (MCF7 [4]) was “Active” and the Activity (Tubulin (Homo sapiens)) was “Active”. The Activity [14] was “Non-Toxic”, the MRT last at 8 h [15] was 1.79 h and the Activity (MCF7 [5]) was “Active”. For the same molecule, the Activity [6] was “Non-Toxic”, the AUCt [16] was 6530 ng·h/mL and the Cmax [17] was 7291 ng/mL. The Activity [18] was “Non-Toxic”, the t1/2 [19] was 1.59 h and the Activity (MCF7 [7]) was “Dose-Dependent Effect”. For the same molecule, the Activity (MCF7 [20]) was 31.55%, the Activity [21] was “Non-Toxic” and the Activity [22] was “Non-Toxic”. For the same molecule, the inhibition in vivo at 5 mg/kg [23] was 38.9%, the Activity [24] was “Non-Toxic” and the Activity [25] was “Non-Toxic”. The inhibition (A549/TxR) was “Dose-Dependent Effect”, the Activity [26] was “Non-Toxic” and the CL [27] was 65 mL/min/kg. The Activity (MCF7 [28]) was “inactive”, the Activity (MCF7 [29]) was “inactive” and the Activity [30] was “Non-Toxic”. The Activity [31] was “Dose-Dependent Effect”, the Activity (MCF7 [32]) was “Active” and the Tmax [33] was 6.6 min. The Activity (HUVEC) was “Dose-Dependent Effect”, the Activity [8] was “Non-Toxic” and the Activity (MCF7 [9]) was “Dose-Dependent Effect”.
